Legend:
oxaliplatin-treated rats [1] = experiment: wire hang test of neuromuscular strength; format: in vivo, rat; settings: wire screen inclined to 90° or 180° for 20 seconds; among groups
Protocol: (§1) To establish the oxaliplatin-induced chronic neuropathy rat model, oxaliplatin (4 mg/mL/kg) or its vehicle (5% glucose solution) was injected intraperitoneally twice weekly for 8 wks. Rats were orally administered GJG (0.3 or 1.0 g/10 mL/kg) or DW 5 times a week for 8 wks.
(§2) A rotarod test was carried out on day 57 to evaluate if chronic treatment of oxaliplatin had any effect on motor coordination. Rats were placed on the rotarod (SN-497; Shinano-Seisakusho Ltd., Tokyo, Japan), which is a horizontal rod 10 cm diameter, with their heads directed against the direction of rotation at 5 rpm. The time that the animal stayed on the rod (up to maximum of 120 seconds) was recorded. A wire hang test was performed for assessment of neuromuscular strength on day 53. Animals were placed on the wire net that was held horizontally. The wire screen was first inclined at 90 ° for 20 seconds, then turned to 180 ° for a further 20 seconds. The latency to fall from the wire net inclined at the respective angles was recorded.

rat sciatic nerve = experiment: histological analysis of the sciatic nerve (electron microscopy, ratio of degenerated myelinated fibers); format: in vivo; settings: oxaliplatin-treated group; 8 wks; n = 3
Protocol: as §1
The rats were deeply anesthetized with pentobarbital (50 mg/kg), and transcardially perfused with phosphate-buffered saline (pH 7.4), followed by 2.5% phosphate-buffered glutaraldehyde. The sciatic nerves were rapidly dissected, and the samples were kept overnight in the same fixative at 4 °C. The fixed fibers were post-fixed with 1% osmium tetroxide solution for 3 hours, dehydrated in a graded alcohol series, and embedded in Epon815. For light microscopy, semi-thin sections were cut from each block and stained with toluidine blue. The stained sections were observed using a light microscope (BX60, Olympus Corp., Tokyo, Japan). For electron microscopy, ultra-thin sections were cut and stained with uranyl acetate and lead citrate. […] The numbers of normal- and degenerated-myelinated nerve fibers were counted in the area of 0.05 mm^2 (0.01 mm^2 × 5 areas), and the ratio of degenerated nerve fibers was calculated as the percentage of total nerve fibers in each group. In this study, the pathological experts who investigate myelination or demyelination analyzed light and electron microscopy in detail.

neuro2A cells = settings: oxaliplatin 30–300 μM, 1 hour
Protocol: Mouse neuroblastoma Neuro2A cells (ATCC-CCL 131) were grown in Dulbecco’s MEM (Life Technologies) containing 10% fetal bovine serum with 100 units/mL penicillin and 100 mg/mL streptomycin (Life Technologies). The cells were maintained at 37 °C in a humidified atmosphere with 5% CO2 and 95% air. For measurement of ROS generation, the cells were seeded at 2.0 × 10^4 cells/well in poly-D-lysine-coated 96-well plates (BD Falcon, Franklin Lakes, NJ, USA). After plating, the cells were maintained in Dulbecco’s MEM (without phenol red or serum, Life Technologies) with 100 units/mL penicillin and 100 mg/mL streptomycin for more than 16 hours until subsequent experiments. Intracellular ROS generation caused by oxaliplatin in neuro2A cells was determined using CM-H2DCFDA. […] The cells were incubated for 30 minutes with 10 μM CM-H2DCFDA at 37 °C, followed by treatment of drugs for 1 hour. Fluorescence intensity was measured using a microplate reader (Infinite M200; Tecan Japan Co., Ltd., Kanagawa, Japan) at 485 nm (excitation) /520 nm (emission).

[2] = design: method as in PMID 11223836; settings: rats, 5 mg/kg oxaliplatin intraperitoneally; cited from earlier work
oxaliplatin-treated rats [3] = experiment: acetone test for cold hyperalgesia in oxaliplatin-treated rats; format: in vivo, rat; settings: oxaliplatin 4 mg/kg i.p. twice weekly; 4, 6 and 8 wks; vs naïve control
Protocol: as §1
(§3) Cold hyperalgesia induced by oxaliplatin was assessed by an acetone test[10]. The acetone test was done on days 24, 38 and 52. Briefly, 250 μL of acetone (Wako Pure Chemical Ltd., Osaka, Japan) was sprayed onto the plantar skin of the right hind paw, and the time spent in elevation and licking of the stimulated hind paw for 60 seconds was measured. Acetone was applied twice at a 15-minute interval, and the average withdrawal response time was calculated. A hot plate test was performed for assessment of thermal hyperalgesia on days 25, 39 and 54. Rats were placed in a Hot/Cold Plate Analgesia Meter (MK-350HC; Muromachi Kikai Co., Ltd., Tokyo, Japan) that kept the temperature of the plate at 50 °C. A cut-off time of 45 seconds was set to prevent tissue damage. The latency of withdrawal response, such as licking and flinching of each hind paw, was recorded.

[4] = platinum concentration in dorsal root ganglia (ICP-MS); format: in vivo, rat; settings: oxaliplatin 4 mg/kg i.p. twice a week; 4 and 8 wks
Protocol: Lumbar L4-L6 DRG were isolated from each group on days 26 and 54 after oxaliplatin treatment. The tissue samples were pretreated by heating in an acid solution, and the tissue platinum concentration was analyzed using an ICP-MS system (Agilent 7700s; Agilent Technologies, Inc., Santa Clara, CA, USA). The lower limit for quantification of platinum in tissue was 2.0 ng.

oxaliplatin-treated rats [5] = experiment: peripheral blood flow by two-dimensional laser speckle Blood Flow Imager; format: in vivo, rat; settings: for peripheral blood flow, Head / peripheral blood flow, Left ear / peripheral blood flow, Left forelimb / peripheral blood flow, Left hindlimb / peripheral blood flow, Right ear / peripheral blood flow, Right forelimb / peripheral blood flow, Right hindlimb / peripheral blood flow, Tail: ratio to naïve rats
Protocol: as §1
Peripheral blood flow was measured using a two-dimensional laser speckle Blood Flow Imager (Omegazone OZ-2; Omegawave, Inc., Tokyo, Japan). Rats were anesthetized with isoflurane for induction and urethane intraperitoneally for maintenance. Body temperature was maintained at 37.5 ± 0.5 °C using a heating pad. Blood pressure and heart rate were concurrently measured by a tail-cuff apparatus (BP-98A-L; Softron, Tokyo, Japan). Peripheral blood flow in the head, ears, forelimbs, hindlimbs and tail of rats was measured at four defined time points (day 3, 10, 26 and 54). Values were analyzed by analysis software (LIA-V210, Softron). Real image and color-coded images were obtained in high-resolution mode (639 × 480 pixels; 2 images/second). The blood flow value in each peripheral site is expressed as mean blood flow in the region of interest (ROI). The ratio of blood flow rate of treated animals to naïve animals was calculated (%).

oxaliplatin-treated rats [6] = experiment: rotarod test of motor coordination; format: in vivo, rat; settings: 8 wks; among the tested groups
Protocol: as §1, §2

oxaliplatin-treated rats [7] = experiment: hot plate test for heat hypoalgesia in oxaliplatin-treated rats; format: in vivo, rat
Protocol: as §1, §3

[8] = day 3, L-OHP 4 mg/kg i.p. twice weekly
[9] = day 10, L-OHP 4 mg/kg i.p. twice weekly

O=C1[O][Pt]2([NH][C@@H]3CCCC[C@H]3[NH]2)[O]C1=O [oxaliplatin]
muscle strength (wire screen hanging test) (oxaliplatin-treated rats [1]): no significant differences | ratio of degenerated axons in total myelinated nerve fibers (rat sciatic nerve): 8.8 ± 2.4% | ROS generation in neuro2A cells (neuro2A cells): increased ROS generation | time for which maximum plasma platinum was maintained [2]: 2 h | time to maximum plasma concentration of platinum [2]: approximately 90 minutes | duration of withdrawal responses to cold stimulation by acetone (oxaliplatin-treated rats [3]): significantly increased | platinum accumulation in the rat DRG [4]: directly correlated with the duration of oxaliplatin treatment | peripheral blood flow, Head (oxaliplatin-treated rats [5]; 4 weeks, L-OHP + DW): 89.9 ± 2.6 % | peripheral blood flow, Left ear (oxaliplatin-treated rats [5]; 4 weeks, L-OHP + DW): 95.7 ± 2.9% | peripheral blood flow, Left forelimb (oxaliplatin-treated rats [5]; 4 weeks, L-OHP + DW): 87.3 ± 2.8 % | peripheral blood flow, Left hindlimb (oxaliplatin-treated rats [5]; 4 weeks, L-OHP + DW): 82.0 ± 4.5 % | peripheral blood flow, Right ear (oxaliplatin-treated rats [5]; 4 weeks, L-OHP + DW): 91.2 ± 3.4% | peripheral blood flow, Right forelimb (oxaliplatin-treated rats [5]; 4 weeks, L-OHP + DW): 89.0 ± 2.7 % | peripheral blood flow, Right hindlimb (oxaliplatin-treated rats [5]; 4 weeks, L-OHP + DW): 88.3 ± 5.1% | peripheral blood flow, Tail (oxaliplatin-treated rats [5]; 4 weeks, L-OHP + DW): 100.1 ± 2.2% | peripheral blood flow, Head (oxaliplatin-treated rats [5]; 8 weeks, L-OHP + DW): 93.5 ± 3.8% | peripheral blood flow, Left ear (oxaliplatin-treated rats [5]; 8 weeks, L-OHP + DW): 91.4 ± 3.2% | peripheral blood flow, Left forelimb (oxaliplatin-treated rats [5]; 8 weeks, L-OHP + DW): 97.2 ± 1.5% | peripheral blood flow, Left hindlimb (oxaliplatin-treated rats [5]; 8 weeks, L-OHP + DW): 95.7 ± 4.7% | peripheral blood flow, Right ear (oxaliplatin-treated rats [5]; 8 weeks, L-OHP + DW): 92.3 ± 4.1% | peripheral blood flow, Right forelimb (oxaliplatin-treated rats [5]; 8 weeks, L-OHP + DW): 100.3 ± 2.0% | peripheral blood flow, Right hindlimb (oxaliplatin-treated rats [5]; 8 weeks, L-OHP + DW): 102.3 ± 4.4% | peripheral blood flow, Tail (oxaliplatin-treated rats [5]; 8 weeks, L-OHP + DW): 96.3 ± 3.3% | peripheral blood flow, Head (oxaliplatin-treated rats [5]; [8]): 108.3 ± 2.9% | peripheral blood flow, Left ear (oxaliplatin-treated rats [5]; [8]): 104.8 ± 4.3% | peripheral blood flow, Left forelimb (oxaliplatin-treated rats [5]; [8]): 97.5 ± 3.1% | peripheral blood flow, Left hindlimb (oxaliplatin-treated rats [5]; [8]): 110.2 ± 0.9% | peripheral blood flow, Right ear (oxaliplatin-treated rats [5]; [8]): 101.5 ± 5.6% | peripheral blood flow, Right forelimb (oxaliplatin-treated rats [5]; [8]): 100.8 ± 1.9% | peripheral blood flow, Right hindlimb (oxaliplatin-treated rats [5]; [8]): 114.2 ± 2.1% | peripheral blood flow, Tail (oxaliplatin-treated rats [5]; [8]): 98.8 ± 2.5% | peripheral blood flow, Head (oxaliplatin-treated rats [5]; [9]): 91.9 ± 4.5% | peripheral blood flow, Left ear (oxaliplatin-treated rats [5]; [9]): 85.3 ± 2.2 % | peripheral blood flow, Left forelimb (oxaliplatin-treated rats [5]; [9]): 93.1 ± 3.8% | peripheral blood flow, Left hindlimb (oxaliplatin-treated rats [5]; [9]): 85.8 ± 5.0% | peripheral blood flow, Right ear (oxaliplatin-treated rats [5]; [9]): 87.7 ± 2.0 % | peripheral blood flow, Right forelimb (oxaliplatin-treated rats [5]; [9]): 91.4 ± 3.1% | peripheral blood flow, Right hindlimb (oxaliplatin-treated rats [5]; [9]): 86.5 ± 6.9% | peripheral blood flow, Tail (oxaliplatin-treated rats [5]; [9]): 90.9 ± 3.4% | mean blood flow in the fore- and hindlimbs (oxaliplatin-treated rats [5]; oxaliplatin, 4 wks): significantly decreased | motor coordination (rotarod test) (oxaliplatin-treated rats [6]): no significant differences | latency of withdrawal to heat stimulation (hot plate) (oxaliplatin-treated rats [7]; 4 wks after oxaliplatin treatment, among all groups): no significant difference | latency of withdrawal to heat stimulation (hot plate) (oxaliplatin-treated rats [7]; oxaliplatin vs naïve control, 6 wks (p < 0.05) and 8 wks (p < 0.01)): gradually increased

From article PMC4635352, “Preventive effect of oral goshajinkigan on chronic oxaliplatin-induced hypoesthesia in rats” (Scientific Reports, 2015)
